Experimental data as given in patent US20180170941A1 (priority 2016, published 2018).
Where two headings read alike, the source gives them in different places.

Assays:
[1] = biological target: T1, α5β3γ2 GABAA receptors (Ltk cell membranes) (Homo sapiens, UniProt P18507+P31644); experiment: Binding activity of test compounds on GABAAR: inhibition of [3H]Ro15-1788 binding
T1 construct: membranes
Summary of the method: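 Membranes from dexamethasone-induced Ltk cells (α5 line: 0.5 μM, 1 day); binding with [3H]Ro15-1788 for 1 h at 4 °C in 50 mM KH2PO4, 1 mM EDTA, 0.2 M KCl, pH 7.4, 0.2 mg/ml α5 protein. Nonspecific binding defined by 10 μM diazepam; filtration, scintillation counting, triplicates.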

[2] = biological target: T2, GABAA α5 receptor (Rattus norvegicus, UniProt P18508+P19969); experiment: GABAA α5 receptor occupancy with Ro 15-4513 tracer, hippocampus vs cerebellum; format: in vivo, Long Evans rats; details: i.v.
T2 construct: from tissue
Procedure: Food and water were available ad libitum.
The (100 μl) supernatant solution was diluted by […] of sterile water (pH 6.5).

[3] = GABA α5 Binding Ki Values, inhibition of [3H]Ro15-1788 binding, reported as ranges
[4] = inhibition of [3H]Ro15-1788 binding, reported as ranges

T2 sequence (P19969 32-464 limits assumed): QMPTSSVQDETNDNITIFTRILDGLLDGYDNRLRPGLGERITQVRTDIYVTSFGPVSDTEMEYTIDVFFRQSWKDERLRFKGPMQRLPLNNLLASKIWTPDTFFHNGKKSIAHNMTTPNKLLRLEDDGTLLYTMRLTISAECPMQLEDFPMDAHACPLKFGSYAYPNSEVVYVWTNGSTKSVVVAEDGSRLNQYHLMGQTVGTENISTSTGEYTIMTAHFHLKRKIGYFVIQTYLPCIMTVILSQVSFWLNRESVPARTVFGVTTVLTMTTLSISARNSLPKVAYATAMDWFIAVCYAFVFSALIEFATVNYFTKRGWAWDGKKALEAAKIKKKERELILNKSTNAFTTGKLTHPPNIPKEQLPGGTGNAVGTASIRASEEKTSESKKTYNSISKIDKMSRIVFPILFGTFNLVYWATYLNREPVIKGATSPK
T2 sequence (P18508 39-466): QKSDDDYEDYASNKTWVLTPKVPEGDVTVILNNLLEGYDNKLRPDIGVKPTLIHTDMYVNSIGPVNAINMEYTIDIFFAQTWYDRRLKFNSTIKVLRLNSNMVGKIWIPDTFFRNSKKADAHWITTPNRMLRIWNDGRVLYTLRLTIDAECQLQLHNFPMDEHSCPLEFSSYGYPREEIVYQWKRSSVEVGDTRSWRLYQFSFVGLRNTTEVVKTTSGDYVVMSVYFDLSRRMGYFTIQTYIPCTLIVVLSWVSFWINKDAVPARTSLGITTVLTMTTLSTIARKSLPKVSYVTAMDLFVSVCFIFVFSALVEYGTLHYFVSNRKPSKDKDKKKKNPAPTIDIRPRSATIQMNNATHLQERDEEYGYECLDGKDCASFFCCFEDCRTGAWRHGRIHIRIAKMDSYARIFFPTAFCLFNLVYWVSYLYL
T1 sequence (P31644 32-462): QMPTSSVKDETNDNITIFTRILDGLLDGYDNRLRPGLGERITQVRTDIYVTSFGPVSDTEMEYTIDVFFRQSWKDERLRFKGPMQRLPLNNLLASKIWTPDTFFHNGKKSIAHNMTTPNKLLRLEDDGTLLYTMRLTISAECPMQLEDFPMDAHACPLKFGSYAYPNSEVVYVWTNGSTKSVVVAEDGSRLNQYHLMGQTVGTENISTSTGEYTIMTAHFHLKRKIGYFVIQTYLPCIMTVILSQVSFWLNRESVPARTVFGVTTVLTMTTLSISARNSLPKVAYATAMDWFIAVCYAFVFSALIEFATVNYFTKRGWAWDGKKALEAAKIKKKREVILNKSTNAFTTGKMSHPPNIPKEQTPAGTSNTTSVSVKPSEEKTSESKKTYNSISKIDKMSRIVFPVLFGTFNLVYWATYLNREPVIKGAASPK
T1 sequence (P28472 26-473 partner): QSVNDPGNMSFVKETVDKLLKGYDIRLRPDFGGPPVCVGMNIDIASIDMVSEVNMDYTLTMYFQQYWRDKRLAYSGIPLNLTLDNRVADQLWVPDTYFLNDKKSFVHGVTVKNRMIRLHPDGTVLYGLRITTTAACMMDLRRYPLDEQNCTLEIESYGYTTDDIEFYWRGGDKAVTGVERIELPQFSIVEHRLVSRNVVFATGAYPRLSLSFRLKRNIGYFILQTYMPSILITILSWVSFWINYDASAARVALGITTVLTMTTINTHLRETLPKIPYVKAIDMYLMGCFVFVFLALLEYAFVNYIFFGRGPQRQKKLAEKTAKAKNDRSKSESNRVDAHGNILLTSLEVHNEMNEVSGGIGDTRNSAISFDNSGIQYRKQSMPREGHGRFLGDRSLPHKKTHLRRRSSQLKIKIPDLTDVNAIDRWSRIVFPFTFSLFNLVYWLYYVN
T1 sequence (P18507 40-475): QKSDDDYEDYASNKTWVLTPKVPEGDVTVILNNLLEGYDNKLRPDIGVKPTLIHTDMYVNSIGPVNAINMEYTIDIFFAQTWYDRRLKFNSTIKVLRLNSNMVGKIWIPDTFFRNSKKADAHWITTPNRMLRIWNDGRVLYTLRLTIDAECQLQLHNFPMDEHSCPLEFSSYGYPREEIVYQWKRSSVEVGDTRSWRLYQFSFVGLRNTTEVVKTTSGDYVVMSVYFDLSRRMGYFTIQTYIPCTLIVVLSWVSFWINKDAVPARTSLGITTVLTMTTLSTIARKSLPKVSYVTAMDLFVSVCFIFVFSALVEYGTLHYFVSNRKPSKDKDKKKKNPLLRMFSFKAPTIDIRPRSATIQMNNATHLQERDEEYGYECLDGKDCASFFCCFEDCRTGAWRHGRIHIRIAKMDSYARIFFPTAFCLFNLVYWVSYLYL

| Compound | Ki [1, 3] [nM] | further results |
| --- | --- | --- |
| COc1ccc2c(c1)-n1nncc1Cc1c(C3=NCCO3)ncn1-2 [Compound 383] | < 100 |  |
| C#Cc1ccc2c(c1)-c1nnc(COC)n1Cc1c(C3=N[C@@H](C(C)C)CO3)ncn1-2 [Compound 384] | 100 to 1000 |  |
| Clc1ccc2c(c1)-n1nncc1Cc1c(-c3nc(-c4ccccc4)co3)ncn1-2 [Compound 385] | < 100 |  |
| FC(F)(F)c1ccc(-c2coc(-c3ncn4c3Cc3cnnn3-c3cc(Cl)ccc3-4)n2)cc1 [Compound 386] | > 1000 |  |
| CC(C)c1coc(-c2ncn3c2Cc2cnnn2-c2cc(Cl)ccc2-3)n1 [Compound 387] | < 100 |  |
| COc1ccc2c(c1)-n1nncc1Cc1c(-c3nc(-c4ccccc4)co3)ncn1-2 [Compound 388] | < 100 |  |
| COc1ccc2c(c1)-n1nncc1Cc1c(-c3nc(-c4cccc(C(F)(F)F)c4)co3)ncn1-2 [Compound 389] | > 1000 |  |
| COc1ccc2c(c1)-n1nncc1Cc1c(-c3nc(-c4ccc(C(F)(F)F)cc4)co3)ncn1-2 [Compound 390] | > 1000 |  |
| COc1ccc2c(c1)-n1nncc1Cc1c(-c3nc(-c4ccc(F)c(C(F)(F)F)c4)co3)ncn1-2 [Compound 392] | 100 to 1000 |  |
| Clc1ccc2c(c1)-n1nncc1Cc1c(-c3ncco3)ncn1-2 [Compound 393] | < 100 |  |
| COc1ccc2c(c1)-n1nncc1Cc1c(-c3nc(C(C)C)co3)ncn1-2 [Compound 394] | < 100 |  |
| Clc1ccc2c(c1)-n1nncc1Cc1c(C#Cc3ccccc3)ncn1-2 [Compound 395] | < 100 |  |
| Cc1ccccc1C#Cc1ncn2c1Cc1cnnn1-c1cc(Cl)ccc1-2 [Compound 396] | < 100 |  |
| COc1ccc(C#Cc2ncn3c2Cc2cnnn2-c2cc(Cl)ccc2-3)cc1 [Compound 397] | < 100 |  |
| FC(F)(F)CC#Cc1ncn2c1Cc1cnnn1-c1cc(Cl)ccc1-2 [Compound 398] | < 100 |  |
| Fc1ccccc1C#Cc1ncn2c1Cc1cnnn1-c1cc(Cl)ccc1-2 [Compound 399] | < 100 |  |
| Clc1ccc2c(c1)-n1nncc1Cc1c(C#Cc3ccccn3)ncn1-2 [Compound 401] | < 100 |  |
| Clc1ccc2c(c1)-n1nncc1Cc1c(C#Cc3cccnc3)ncn1-2 [Compound 402] | < 100 |  |
| C#Cc1ncn2c1Cc1cnnn1-c1cc(OC)ccc1-2 [Compound 403] | < 100 |  |
| COc1ccc2c(c1)-n1nncc1Cc1c(C#Cc3ccccc3)ncn1-2 [Compound 404] | < 100 |  |
| COc1ccc2c(c1)-n1nncc1Cc1c(C#Cc3ccccc3C)ncn1-2 [Compound 405] | < 100 |  |
| COc1ccc2c(c1)-n1nncc1Cc1c(C#Cc3ccc(C(F)(F)F)cc3)ncn1-2 [Compound 406] | < 100 |  |
| COc1ccc2c(c1)-n1nncc1Cc1c(C#Cc3cccnc3)ncn1-2 [Compound 407] | < 100 |  |
| COc1ccc2c(c1)-n1nncc1Cc1c(C#Cc3ccccn3)ncn1-2 [Compound 408] | < 100 |  |
| COc1cccc(C#Cc2ncn3c2Cc2cnnn2-c2cc(OC)ccc2-3)c1 [Compound 409] | < 100 |  |

| Compound | Ki [1, 3] [nM] | further results |
| --- | --- | --- |
| CC#Cc1ncn2c1Cc1cnnn1-c1cc(OC)ccc1-2 [Compound 410] | < 100 |  |
| COc1ccc2c(c1)-n1nncc1Cc1c(C#Cc3ccccc3F)ncn1-2 [Compound 411] | < 100 |  |
| COc1ccc2c(c1)-n1nncc1Cc1c(C#Cc3ccc(OC(F)(F)F)cc3)ncn1-2 [Compound 412] | < 100 |  |
| COc1ccc2c(c1)-n1nncc1Cc1c(C#CCc3ccccc3)ncn1-2 [Compound 413] | < 100 |  |
| COc1ccc(C#Cc2ncn3c2Cc2cnnn2-c2cc(OC)ccc2-3)cc1 [Compound 414] | < 100 |  |
| CC(C)C#Cc1ncn2c1Cc1cnnn1-c1cc(Cl)ccc1-2 [Compound 415] | < 100 |  |
| CC#Cc1ncn2c1Cc1cnnn1-c1cc(Cl)ccc1-2 [Compound 416] | < 100 |  |
| COc1ccc2c(c1)-n1nncc1Cc1c(C#CCc3cccc(Cl)c3)ncn1-2 [Compound 417] | < 100 |  |
| COc1ccc2c(c1)-n1nncc1Cc1c(C#CCc3cccc(OC(F)(F)F)c3)ncn1-2 [Compound 418] | < 100 |  |
| COc1ccc2c(c1)-n1nncc1Cc1c(C#CCc3cccc(F)c3)ncn1-2 [Compound 419] | < 100 |  |
| COc1ccc2c(c1)-n1nncc1Cc1c(C#CCc3ccccc3OC(F)(F)F)ncn1-2 [Compound 420] | < 100 |  |
| COCc1nnc2n1Cc1c(C#CCc3cccc(F)c3)ncn1-c1ccc(Cl)cc1-2 [Compound 421] | < 100 |  |
| COCc1nnc2n1Cc1c(C#CCc3cccc(Cl)c3)ncn1-c1ccc(Cl)cc1-2 [Compound 422] | < 100 |  |
| COCc1nnc2n1Cc1c(C#CCc3cccc(OC(F)(F)F)c3)ncn1-c1ccc(Cl)cc1-2 [Compound 423] | < 100 |  |
| COc1ccc2c(c1)-n1nncc1Cc1c(C#CC(C)C)ncn1-2 [Compound 424] | < 100 |  |
| Cc1noc(-c2ncn3c2Cc2cnnn2-c2cc(Cl)ccc2-3)n1 [Compound 425] | < 100 |  |
| CC(C)c1noc(-c2ncn3c2Cc2cnnn2-c2cc(Cl)ccc2-3)n1 [Compound 426] | < 100 |  |
| COCc1nnc2n1Cc1c(-c3noc(C)n3)ncn1-c1ccc(Cl)cc1-2 [Compound 427] | < 100 |  |
| COCc1nnc2n1Cc1c(COc3ccccc3)ncn1-c1ccc(Cl)cc1-2 [Compound 429] |  | Ki [1, 4]: > 1000 nM |
| COCc1nnc2n1Cc1c(COCc3ccccc3)ncn1-c1ccc(Cl)cc1-2 [Compound 430] |  | Ki [1, 4]: > 1000 nM |
| COCc1nnc2n1Cc1c(COCc3ccccc3F)ncn1-c1ccc(Cl)cc1-2 [Compound 431] |  | Ki [1, 4]: > 1000 nM |
| COCc1nnc2n1Cc1c(COCc3cccc(F)c3)ncn1-c1ccc(Cl)cc1-2 [Compound 432] |  | Ki [1, 4]: > 1000 nM |
| COCc1nnc2n1Cc1c(COc3ccccc3F)ncn1-c1ccc(Cl)cc1-2 [Compound 433] |  | Ki [1, 4]: > 1000 nM |
| COCc1nnc2n1Cc1c(COc3cccc(F)c3)ncn1-c1ccc(Cl)cc1-2 [Compound 434] |  | Ki [1, 4]: > 1000 nM |
| COCc1nnc2n1Cc1c(COc3ccc(F)cc3)ncn1-c1ccc(Cl)cc1-2 [Compound 435] |  | Ki [1, 4]: > 1000 nM |

| Compound | Ki [1, 3] [nM] | further results |
| --- | --- | --- |
| CC(C)OCc1nnc2n1Cc1c(/C=C/c3ccccc3)ncn1-c1ccc(Cl)cc1-2 [Compound 446] |  | Ki [1]: > 1000 nM |
| CC(C)OCc1nnc2n1Cc1c(/C=C/c3ccc(F)cc3)ncn1-c1ccc(Cl)cc1-2 [Compound 447] |  | Ki [1]: > 1000 nM |
| O=C(C#Cc1ncn2c1Cc1cnnn1-c1cc(Cl)ccc1-2)c1ccccc1 [Compound 448] | < 100 |  |
| C#Cc1ncn2c1C(Cc1ccccc1)c1cnnn1-c1cc(OC)ccc1-2 (stereo not shown) [Compound 449] | > 1000 |  |
| C#Cc1ncn2c1C(Cc1cccc(F)c1)(Cc1cccc(F)c1)c1cnnn1-c1cc(OC)ccc1-2 [Compound 450] | > 1000 |  |
| C#Cc1ncn2c1C(Cc1ccccc1F)c1cnnn1-c1cc(OC)ccc1-2 (stereo not shown) [Compound 451] | < 100 |  |
| Clc1ccc2c(c1)-n1nncc1Cc1c(Br)ncn1-2 [Compound 452] | < 100 |  |
| CC(C)C#Cc1ccc2c(c1)-n1nncc1Cc1c(C#CC(C)C)ncn1-2 [Compound 453] | 100 to 1000 |  |
| CC(C)C#Cc1ccc2c(c1)-n1nncc1Cc1c(Br)ncn1-2 [Compound 454] | < 100 |  |
| COCc1nnc2n1Cc1c(C#CC(=O)c3ccccc3)ncn1-c1ccc(Cl)cc1-2 [Compound 455] | < 100 |  |
| COCc1nnc2n1Cc1c(-c3nc(C)no3)ncn1-c1ccc(OC(F)(F)F)cc1-2 [Compound 456] | < 100 |  |
| COCc1nnc2n1Cc1c(-c3nc(C)no3)ncn1-c1cc(Cl)ccc1-2 [Compound 457] |  | Ki [1]: > 1000 nM |
| COCc1nnc2n1Cc1c(-c3nc(C)no3)ncn1-c1ccc(C(F)(F)F)cc1-2 [Compound 459] | < 100 |  |
| COCc1nnc2n1Cc1c(C3=NCCO3)ncn1-c1ccc(OC(F)(F)F)cc1-2 [Compound 460] | 100 to 1000 |  |
| COCc1nnc2n1Cc1c(-c3nc(C)no3)ncn1-c1ccc(Br)cc1-2 [Compound 461] | < 100 |  |
| COCc1nnc2n1Cc1c(-c3nc(C)no3)ncn1-c1ccc(-c3ccccc3)cc1-2 [Compound 462] | < 100 |  |
| COCc1nnc2n1Cc1c(-c3nc(C)no3)ncn1-c1c(Cl)cccc1-2 [Compound 463] |  | Ki [1]: > 1000 nM |
| COCc1nnc2n1Cc1c(-c3nc(C)no3)ncn1-c1ccc(C#N)cc1-2 [Compound 465] | < 100 |  |
| COCc1nnc2n1Cc1c(-c3ncco3)ncn1-c1c(Cl)cccc1-2 [Compound 466] |  | Ki [1]: > 1000 nM |
| COCc1nnc2n1Cc1c(-c3ncco3)ncn1-c1ccc(OC(F)(F)F)cc1-2 [Compound 467] | < 100 |  |
| COCc1nnc2n1Cc1c(-c3nc(C)no3)ncn1-c1ccc(-c3cccnc3)cc1-2 [Compound 469] | 100 to 1000 |  |
| COCc1nnc2n1Cc1c(C3=NCCO3)ncn1-c1ccc(C(F)(F)F)cc1-2 [Compound 470] | 100 to 1000 |  |
| COCc1nnc2n1Cc1c(-c3ncco3)ncn1-c1ccc(C(F)(F)F)cc1-2 [Compound 471] | < 100 |  |
| CCOC(=O)c1ncn2c1Cn1c(C)nnc1-c1cc(OC)ccc1-2 [Ethyl 3-methoxy-7-methyl-9H-benzo[f]imidazo[1,5-a][1,2,4]tri] |  | Ro 15-4513 binding in hippocampus ([2]; 0.01-10 mg/kg): blocked; cerebellum levels (binding) of Ro 15-4513 ([2]; 0.01-10 mg/kg): did not affect |
| CCOC(=O)c1ncn2c1CN(C)C(=O)c1cc(N=[N+]=[N-])ccc1-2 [Ro 15-4513] |  | Ro 15-4513 level in hippocampus compared with cerebellum ([2]; tracer 1 μg/kg, after vehicle): > 5 fold |
